# Assay results: US20230286970A1, “NOVEL OXADIAZOLE-BASED SELECTIVE HDAC6 INHIBITORS” (ITALFARMACO S.P.A., priority 2020, published 2023)
# Tests used:
# recombinant human HDAC1 = recombinant human HDAC1 (Homo sapiens (Human), UniProt Q13547); assay: Enzymatic screening, HDAC1 inhibition (fluorogenic FdL_G substrate); assay type: biochemical
# Experimental: (§1) For each test compound, 100× concentrated DMSO solutions at 8 doses were prepared and then diluted in assay buffer (25 mM Tris-HCl, pH 8, 130 mM NaCl, 0.05% Tween-20, 10% Glycerol) to obtain 5× concentrated solutions in relation to the final concentrations (typical final concentration range—6.4-200000 nM or 0.18-50000 nM, final DMSO content—1%). Then 10 μL solution of each test compound concentration were placed on a 96-well plate in triplicate and 15 μL of 3.33× concentrated enzyme solution in the assay buffer containing 3.33× concentrated BSA (final BSA concentration—2 mg/mL for HDAC4, HDAC5 and HDAC9 or 1 mg/mL for other isoforms) and in the case of HDAC6-3.33× concentrated TCEP (final TCEP concentration—200 μM) were added to each well. After a period of preincubation (incubation times and temperatures vary for different isoforms and are shown in table 1) 25 μL of solution containing the substrate were added. As substrate, FLUOR DE LYS® deacetylase substrate (Enzo Life Sciences, cat: BML-KI104, FdL), FLUOR DE LYS®-Green substrate (Enzo Life Sciences, cat: BML-KI572, FdL_G) or Boc-Lys(Tfa)-AMC (Bachem, cat: 4060676.005, Tfal)—2× concentrated solution in assay buffer were used. Following a reaction period (reaction times and temperatures vary for different isoforms and are reported in Table 1), 50 μL of the development solution consisting of concentrate FLUOR DE LYS® developer I (Enzo Life Sciences, ca: BML-KI105), diluted 200 times in buffer (50 mM Tris-HCl, pH 8, 137 mM NaCl, 2.7 mM KCl, 1 mM MgCl2) plus 2 μM TSA was added and, after 25 minutes at room temperature in the dark, using the Victor 1420 Multilabel Counter Perkin Elmer Wallac instrument, the fluorescence reading was carried out.
# recombinant human HDAC6 = recombinant human HDAC6 (Homo sapiens (Human), UniProt Q9UBN7); assay: Enzymatic screening, HDAC6 inhibition (fluorogenic FdL_G substrate); assay type: biochemical
# Experimental: as §1
# Sequence of recombinant human HDAC1 (Q13547 whole entry, canonical isoform): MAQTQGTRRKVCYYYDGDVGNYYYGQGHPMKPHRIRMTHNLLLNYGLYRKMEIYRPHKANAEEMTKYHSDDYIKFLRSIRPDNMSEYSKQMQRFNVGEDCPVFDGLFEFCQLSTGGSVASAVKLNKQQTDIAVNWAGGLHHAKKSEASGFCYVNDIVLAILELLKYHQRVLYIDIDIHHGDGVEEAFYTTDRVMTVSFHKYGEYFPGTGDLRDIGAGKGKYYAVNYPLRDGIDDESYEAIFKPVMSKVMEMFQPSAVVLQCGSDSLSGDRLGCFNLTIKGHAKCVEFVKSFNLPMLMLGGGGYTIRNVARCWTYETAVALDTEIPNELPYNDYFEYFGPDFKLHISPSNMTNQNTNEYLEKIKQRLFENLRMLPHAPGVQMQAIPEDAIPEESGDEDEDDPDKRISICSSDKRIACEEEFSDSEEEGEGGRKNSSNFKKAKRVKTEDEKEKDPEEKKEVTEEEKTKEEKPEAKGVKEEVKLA
# Sequence of recombinant human HDAC6 (Q9UBN7 whole entry): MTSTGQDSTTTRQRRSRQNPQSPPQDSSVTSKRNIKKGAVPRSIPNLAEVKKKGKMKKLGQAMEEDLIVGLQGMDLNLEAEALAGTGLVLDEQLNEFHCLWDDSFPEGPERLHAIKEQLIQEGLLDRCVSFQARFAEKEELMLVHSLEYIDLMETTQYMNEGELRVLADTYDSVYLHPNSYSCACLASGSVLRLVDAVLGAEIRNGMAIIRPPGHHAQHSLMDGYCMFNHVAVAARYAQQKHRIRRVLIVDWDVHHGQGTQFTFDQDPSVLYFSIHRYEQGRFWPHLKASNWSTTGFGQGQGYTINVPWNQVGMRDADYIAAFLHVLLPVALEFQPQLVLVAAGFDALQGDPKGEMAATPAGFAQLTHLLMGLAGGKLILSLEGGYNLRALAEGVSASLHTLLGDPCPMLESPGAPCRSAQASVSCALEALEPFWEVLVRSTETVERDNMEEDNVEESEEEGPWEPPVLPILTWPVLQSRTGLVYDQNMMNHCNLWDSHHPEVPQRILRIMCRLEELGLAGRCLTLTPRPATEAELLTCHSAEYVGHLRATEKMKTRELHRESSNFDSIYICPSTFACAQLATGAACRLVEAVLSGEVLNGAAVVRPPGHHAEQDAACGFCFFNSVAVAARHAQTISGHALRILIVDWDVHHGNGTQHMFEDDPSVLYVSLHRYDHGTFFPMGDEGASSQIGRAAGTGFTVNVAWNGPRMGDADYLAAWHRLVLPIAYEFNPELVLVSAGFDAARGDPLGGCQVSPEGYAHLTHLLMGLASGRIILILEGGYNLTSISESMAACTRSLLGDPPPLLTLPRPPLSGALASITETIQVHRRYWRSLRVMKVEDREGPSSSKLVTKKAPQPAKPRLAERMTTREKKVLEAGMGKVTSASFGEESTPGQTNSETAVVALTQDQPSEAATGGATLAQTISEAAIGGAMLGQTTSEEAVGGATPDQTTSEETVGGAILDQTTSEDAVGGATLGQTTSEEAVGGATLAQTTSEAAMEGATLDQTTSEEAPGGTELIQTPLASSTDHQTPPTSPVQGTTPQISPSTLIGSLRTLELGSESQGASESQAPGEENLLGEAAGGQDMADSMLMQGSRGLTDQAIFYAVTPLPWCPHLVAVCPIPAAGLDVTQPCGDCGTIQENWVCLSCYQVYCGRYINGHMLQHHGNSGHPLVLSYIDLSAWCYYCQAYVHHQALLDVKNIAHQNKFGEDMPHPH
IC50 (recombinant human HDAC1) [nM],IC50 (recombinant human HDAC6) [nM],Compound
> 200000,26,"CC(C)(C)OC(=O)N1CCC2(C1)C(=O)Nc1ccc(-c3cn(Cc4ccc(-c5nnc(C(F)F)o5)cn4)nn3)cc12 (single isomer, unassigned) [compound 265, tert-butyl 5-[1-({5-[5-(difluoromethyl)-1,3,4-oxadiazol-2-yl]pyridin-2-yl}methyl)-1H-1,2,3-triazol-4-yl]-2-oxo-1,2-dihydrospiro[indole-3,3′-pyrrolidine]-1′-carboxylate]"
> 200000,35,"CC(C)(C)OC(=O)N1CCC2(C1)C(=O)Nc1ccc(-c3cn(Cc4ccc(-c5nnc(C(F)F)o5)cn4)nn3)cc12 (single isomer, unassigned) [compound 266, tert-butyl 5-[1-({5-[5-(difluoromethyl)-1,3,4-oxadiazol-2-yl]pyridin-2-yl}methyl)-1H-1,2,3-triazol-4-yl]-2-oxo-1,2-dihydrospiro[indole-3,3′-pyrrolidine]-1′-carboxylate]"
> 200000,96,"CC[C@H](c1ccc(-c2nnc(C(F)F)o2)cc1)n1cc(-c2cccc(NC(=O)N3CCOCC3)c2)nn1 (stereo in doubt) [compound 184, N-(3-(1-(1-(4-(5-(difluoromethyl)-1,3,4-oxadiazol-2-yl)phenyl)propyl)-1H-1,2,3-triazol-4-yl)phenyl)morpholine-4-carboxamide]"
> 200000,122,"CCC[C@@H](c1ccc(-c2nnc(C(F)F)o2)cc1)n1cc(-c2cccc(NC(=O)N3CCOCC3)c2)nn1 (stereo in doubt) [compound 205, N-(3-(1-(1-(4-(5-(difluoromethyl)-1,3,4-oxadiazol-2-yl)phenyl)butyl)-1H-1,2,3-triazol-4-yl)phenyl)morpholine-4-carboxamide]"
> 200000,8,"O=C1Nc2ccc(-c3cn(Cc4ccc(-c5nnc(C(F)F)o5)cn4)nn3)cc2C12CCCC2 [Compd. 26, 5′-(1-((5-(5-(difluoromethyl)-1,3,4-oxadiazol-2-yl)pyridin-2-yl)methyl)-1H-1,2,3-triazol-4-yl)spiro[cyclopentane-1,3′-indolin]-2′-one]"
> 200000,34,"CN1CC(C(=O)Nc2cccc(-c3cn(Cc4c(F)cc(-c5nnc(C(F)F)o5)cc4F)nn3)c2)C1 [Compd. 86, N-(3-(1-(4-(5-(difluoromethyl)-1,3,4-oxadiazol-2-yl)-2,6-difluorobenzyl)-1H-1,2,3-triazol-4-yl)phenyl)-1-methylazetidine-3-carboxamide]"
> 200000,34,"O=C(Nc1ccc(-c2cn(Cc3ncc(-c4nnc(C(F)F)o4)cn3)nn2)cn1)C(F)F [Compd. 88, N-(5-(1-((5-(5-(difluoromethyl)-1,3,4-oxadiazol-2-yl)pyrimidin-2-yl)methyl)-1H-1,2,3-triazol-4-yl)pyridin-2-yl)-2,2-difluoroacetamide]"
> 200000,36,"Nc1ccc(-c2cn(C(CO)c3ccc(-c4nnc(C(F)F)o4)cc3)nn2)cn1 (stereo not drawn) [Compd. 94, 2-(4-(6-aminopyridin-3-yl)-1H-1,2,3-triazol-1-yl)-2-(4-(5-(difluoromethyl)-1,3,4-oxadiazol-2-yl)phenyl)ethan-1-ol]"
> 200000,60,"NCC(=O)Nc1cccc(-c2cn(Cc3c(F)cc(-c4nnc(C(F)F)o4)cc3F)nn2)c1 [Compd. 144, 2-amino-N-(3-(1-(4-(5-(difluoromethyl)-1,3,4-oxadiazol-2-yl)-2,6-difluorobenzyl)-1H-1,2,3-triazol-4-yl)phenyl)acetamide]"
,72,"CC(c1ccc(-c2nnc(C(F)F)o2)cc1)n1cc(-c2ccc(N)nc2)nn1 (stereo not drawn) [Compd. 158, 5-(1-(1-(4-(5-(difluoromethyl)-1,3,4-oxadiazol-2-yl)phenyl)ethyl)-1H-1,2,3-triazol-4-yl)pyridin-2-amine]"
> 200000,,"C[C@@H]1CN(c2ccc(-c3nnn(Cc4ccc(-c5nnc(C(F)F)o5)cc4)n3)cn2)CCN1 [compound 159, (R)-2-(difluoromethyl)-5-(4-((5-(6-(3-methylpiperazin-1-yl)pyridin-3-yl)-2H-tetrazol-2-yl)methyl)phenyl)-1,3,4-oxadiazole]"
> 200000,,"C[C@H]1CN(c2ccc(-c3nnn(Cc4ccc(-c5nnc(C(F)F)o5)cc4)n3)cn2)CCN1 [compound 182, (S)-2-(difluoromethyl)-5-(4-((5-(6-(3-methylpiperazin-1-yl)pyridin-3-yl)-2H-tetrazol-2-yl)methyl)phenyl)-1,3,4-oxadiazole]"
,122,"COc1ccc(-c2nnn(Cc3ccc(-c4nnc(C(F)F)o4)cc3)n2)cc1 [compound 204, 2-(difluoromethyl)-5-(4-((5-(4-methoxyphenyl)-2H-tetrazol-2-yl)methyl)phenyl)-1,3,4-oxadiazole]"
,489,"FC(F)c1nnc(-c2ccc(Cn3nnc(-c4ccc(Cl)cc4Cl)n3)cc2)o1 [compound 263, 2-(4-((5-(2,4-dichlorophenyl)-2H-tetrazol-2-yl)methyl)phenyl)-5-(difluoromethyl)-1,3,4-oxadiazole]"
,186,"Nc1ncc2cc(-c3nnn(Cc4ccc(-c5nnc(C(F)F)o5)cc4)n3)ccc2n1 [compound 278, 6-(2-(4-(5-(difluoromethyl)-1,3,4-oxadiazol-2-yl)benzyl)-2H-tetrazol-5-yl)quinazolin-2-amine]"
,49,"Nc1cnc2ccc(-c3nnn(Cc4cc(F)c(-c5nnc(C(F)F)o5)cc4F)n3)cc2c1 [compound 398, 6-[2-[[4-[5-(difluoromethyl)-1,3,4-oxadiazol-2-yl]-2,5-difluorophenyl]methyl]tetrazol-5-yl]quinolin-3-amine]"
,32,"Nc1cnc2ccc(-c3nnn(Cc4ccc(-c5nnc(C(F)F)o5)c(F)c4)n3)cc2c1 [compound 400, 6-[2-[[4-[5-(difluoromethyl)-1,3,4-oxadiazol-2-yl]-3-fluorophenyl]methyl]tetrazol-5-yl]quinolin-3-amine]"
,44,"Nc1ncnc2sc(-c3cn(Cc4ccc(-c5nnc(C(F)F)o5)c(F)c4)nn3)cc12 [compound 417, 6-[1-({4-[5-(difluoromethyl)-1,3,4-oxadiazol-2-yl]-3-fluorophenyl}methyl)-1H-1,2,3-triazol-4-yl]thieno[2,3-d]pyrimidin-4-amine]"
,27,"Nc1ncnc2cc(-c3cn(Cc4ccc(-c5nnc(C(F)F)o5)c(F)c4)nn3)ccc12 [compound 418, 7-(1-(4-(5-(difluoromethyl)-1,3,4-oxadiazol-2-yl)-3-fluorobenzyl)-1H-1,2,3-triazol-4-yl)quinazolin-4-amine]"
,76,"Nc1ncc2cc(-c3nnn(Cc4ccc(-c5nnc(C(F)F)o5)cc4F)n3)ccc2n1 [compound 424, 6-(2-(4-(5-(difluoromethyl)-1,3,4-oxadiazol-2-yl)-2-fluorobenzyl)-2H-tetrazol-5-yl)quinazolin-2-amine]"
,545,"Nc1ncc2cc(-c3nnn(Cc4ccc(-c5nnc(C(F)F)o5)cc4Cl)n3)ccc2n1 [compound 425, 6-(2-(2-chloro-4-(5-(difluoromethyl)-1,3,4-oxadiazol-2-yl)benzyl)-2H-tetrazol-5-yl)quinazolin-2-amine]"
,72,"Fc1cc(-c2nnc(C(F)F)o2)ccc1Cn1nnc(-c2ccc3cnccc3c2)n1 [compound 427, 2-(difluoromethyl)-5-(3-fluoro-4-((5-(isoquinolin-6-yl)-2H-tetrazol-2-yl)methyl)phenyl)-1,3,4-oxadiazole]"
,99,"Fc1cc(-c2nnc(C(F)F)o2)c(F)cc1Cn1nnc(-c2ccc3cnccc3c2)n1 [compound 428, 2-(2,5-difluoro-4-((5-(isoquinolin-6-yl)-2H-tetrazol-2-yl)methyl)phenyl)-5-(difluoromethyl)-1,3,4-oxadiazole]"
,352,"Fc1cc(-c2nnc(C(F)F)o2)ccc1Cn1nnc(-c2nccc3ccccc23)n1 [compound 431, 2-(difluoromethyl)-5-(3-fluoro-4-((5-(isoquinolin-1-yl)-2H-tetrazol-2-yl)methyl)phenyl)-1,3,4-oxadiazole]"
,23,"Nc1ncnc2cc(-c3cn(Cc4cc(F)c(-c5nnc(C(F)F)o5)cc4F)nn3)ccc12 [compound 433, 7-(1-(4-(5-(difluoromethyl)-1,3,4-oxadiazol-2-yl)-2,5-difluorobenzyl)-1H-1,2,3-triazol-4-yl)quinazolin-4-amine]"
,59,"Nc1ncnc2cc(-c3cn(Cc4ccc(-c5nnc(C(F)F)o5)cc4Cl)nn3)ccc12 [compound 434, 7-(1-(2-chloro-4-(5-(difluoromethyl)-1,3,4-oxadiazol-2-yl)benzyl)-1H-1,2,3-triazol-4-yl)quinazolin-4-amine]"
,100,"CNc1ccc2cc(-c3nnn(Cc4cc(F)c(-c5nnc(C(F)F)o5)cc4F)n3)ccc2n1 [compound 504, 6-(2-(4-(5-(difluoromethyl)-1,3,4-oxadiazol-2-yl)-2,5-difluorobenzyl)-2H-tetrazol-5-yl)-N-methylquinolin-2-amine]"
